Consider 18 molecules from ChEMBL document CHEMBL5316345, “Discovery of the Potent and Selective MC4R Antagonist PF-07258669 for the Potential Treatment of Appetite Loss” (J Med Chem, 2023).

One may read the Ki as a measure of affinity in units of concentration, obtained from inhibition or displacement. One may read the IC50 as the midpoint of a concentration-inhibition curve. As a reminder, the logD is the decadic logarithm of the distribution of all forms, ionised or not, between an organic phase and buffer at a given pH. Lower therefore signals lower lipophilicity.

Data set [1] can be described thus: Metabolic stability in human hepatocyte assessed as intrinsic clearance measured per million cells HPLC/UV/MS analysis. It is filed as ADME, cell-based. The note with it: hepatocytes, read-out: CLH.
Data set [2] addresses T1, Melanocortin receptor 4 (Homo sapiens, UniProt P32245). Put plainly: Antagonist activity at human MC4R in CHO cells measured for 24 hrs in presence of alpha-MSH. It is filed as cell-based.
For data set [3], the target named is T1, Melanocortin receptor 4. Put plainly: Antagonist activity at human MC4R in CHO cells measured for 24 hrs. It counts as cell-based.
A short description of data set [4]: Efflux ratio of apparent permeability from basolateral to apical side over apical to basolateral side in MDCK-MDR1 cells. It is filed as ADME, cell-based, Canis lupus familiaris. To be noted: dog.
Data set [5] in a line: Lipophilicity, logD of compound at pH 7.4 by shake flask method. It is filed as physicochemical. The note with it: buffer.
Data set [6] can be described thus: Octanol-water distribution coefficient, logD of the compound at pH 7.4 by RP-HPLC analysis. It is filed as physicochemical.
The nature of data set [7]: Metabolic stability in human hepatocyte assessed as intrinsic clearance measured per 10^6 cells HPLC/UV/MS analysis. It counts as ADME, cell-based. The note with it: hepatocytes, read-out: CLH.
Data set [8] deals with Voltage-gated inwardly rectifying potassium channel KCNH2 (Homo sapiens, UniProt Q12809). Put plainly: Inhibition of hERG expressed in CHO cells stably at -80 mV holding potential by automated patch clamp method. It is filed as toxicity, cell-based.
Sequence of Voltage-gated inwardly rectifying potassium channel KCNH2 (Q12809 whole entry): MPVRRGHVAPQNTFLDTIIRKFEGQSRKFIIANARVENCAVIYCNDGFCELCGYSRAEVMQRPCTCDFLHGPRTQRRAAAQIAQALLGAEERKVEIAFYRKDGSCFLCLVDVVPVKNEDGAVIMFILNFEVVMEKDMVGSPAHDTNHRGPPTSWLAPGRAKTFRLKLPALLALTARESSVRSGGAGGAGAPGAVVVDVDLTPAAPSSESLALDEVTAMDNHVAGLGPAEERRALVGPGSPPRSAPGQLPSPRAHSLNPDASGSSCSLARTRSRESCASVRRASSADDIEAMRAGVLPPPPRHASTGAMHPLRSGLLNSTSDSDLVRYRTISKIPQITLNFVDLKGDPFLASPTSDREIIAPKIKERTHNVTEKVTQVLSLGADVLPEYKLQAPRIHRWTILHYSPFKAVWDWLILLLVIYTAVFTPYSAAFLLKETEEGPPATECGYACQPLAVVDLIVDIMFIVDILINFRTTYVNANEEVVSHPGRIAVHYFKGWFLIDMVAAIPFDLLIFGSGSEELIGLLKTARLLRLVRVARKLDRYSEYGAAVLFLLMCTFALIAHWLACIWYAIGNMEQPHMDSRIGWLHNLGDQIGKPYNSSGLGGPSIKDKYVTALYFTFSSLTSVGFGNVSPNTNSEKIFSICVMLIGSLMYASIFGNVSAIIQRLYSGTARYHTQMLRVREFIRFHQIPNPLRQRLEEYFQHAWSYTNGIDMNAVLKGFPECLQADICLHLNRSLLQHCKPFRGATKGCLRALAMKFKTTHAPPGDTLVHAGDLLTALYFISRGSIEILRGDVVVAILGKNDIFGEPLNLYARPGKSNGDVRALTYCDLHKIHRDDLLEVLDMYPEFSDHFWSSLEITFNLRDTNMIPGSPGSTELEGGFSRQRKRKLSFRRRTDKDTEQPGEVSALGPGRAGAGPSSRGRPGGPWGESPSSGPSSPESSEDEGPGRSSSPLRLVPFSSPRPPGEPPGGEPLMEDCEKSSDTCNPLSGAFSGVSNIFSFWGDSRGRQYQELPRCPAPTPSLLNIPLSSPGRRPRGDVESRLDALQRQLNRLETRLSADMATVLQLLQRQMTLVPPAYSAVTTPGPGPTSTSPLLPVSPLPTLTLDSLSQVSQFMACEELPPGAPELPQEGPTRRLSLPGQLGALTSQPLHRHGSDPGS
The next data set has as its target Cytochrome P450 3A (Homo sapiens, UniProt P08684+P20815+Q9HB55+P24462). Put plainly: Time dependent inhibition of CYP3A (unknown origin) at 10 uM relative to control. It counts as ADME, protein assay.
Data set [9] addresses T1, Melanocortin receptor 4. Put plainly: Antagonist activity at human MC4R expressed in CHO cells assessed as decrease in alpha-MSH induced cAMP level incubated for 1 hr by microplate reader analysis. It counts as functional, cell-based. A general note: Changes in cAMP serve as a functional read-out for many G protein-coupled receptors.

T1 sequence (P32245 whole entry): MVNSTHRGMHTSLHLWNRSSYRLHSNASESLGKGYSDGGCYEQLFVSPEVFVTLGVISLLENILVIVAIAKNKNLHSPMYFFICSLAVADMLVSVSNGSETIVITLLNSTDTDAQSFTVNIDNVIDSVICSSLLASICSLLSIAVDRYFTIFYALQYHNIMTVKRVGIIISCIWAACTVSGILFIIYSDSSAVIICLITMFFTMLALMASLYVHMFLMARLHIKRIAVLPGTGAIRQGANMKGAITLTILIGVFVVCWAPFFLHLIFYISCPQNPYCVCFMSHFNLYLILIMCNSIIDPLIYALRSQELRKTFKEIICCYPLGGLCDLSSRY

`COc1cc(CC(=O)N2CC[C@H](Nc3ccc(-c4nc(C(F)F)n(C)n4)c(C)n3)C2)ccn1`: the hepatocyte CLint in data set [1] came out at 7.1 µL/min/1e6 cells. Besides, the Ki at Melanocortin receptor 4 [2] worked out at 27 nM.

The molecule `COc1ccc2nc(N(C(=O)Cc3cc(F)cc(F)c3)[C@H]3CCNC3)ccc2c1` showed an IC50 on Melanocortin receptor 4 [3] of 3.8 nM.

For `COc1cc([C@@H](C)C(=O)N2CC[C@H](Nc3ccc(-c4ncccn4)c(C)n3)C2)c(F)cn1`, in data set [1], the hepatocyte CLint turned out to be 7.9 µL/min/1e6 cells. For the same molecule, in [4], the Ratio is on record as 4.9. Besides, the inhibitory constant (Ki) at Melanocortin receptor 4 [2] was found to be 6.4 nM. The log distribution coefficient (logD) in [5] amounted to 2.6.

`COc1cc([C@@H](C)C(=O)N2CC[C@H](Nc3ccc(-c4nc(C(F)F)n(C)n4)c(C)n3)C2)ccn1`: the hepatocyte CLint in [1] turned out to be 10 µL/min/1e6 cells. Besides, in [4], the Ratio is reported as 16. Also, the inhibition constant Ki on Melanocortin receptor 4 [2] was found to be 1.4 nM. Further, the pH-dependent lipophilicity (logD) in data set [5] stood at 2.7.

For the molecule `Cc1nc2c(cc1-c1cnn(C)c1)OC[C@@]1(CCN(C(=O)Cc3ccc(F)cc3)C1)N2`, the hepatocyte CLint in data set [1] came out at 4.9 µL/min/1e6 cells. Also, in [6], the logD is 2.4.

Consider `Cc1nc2c(cc1-c1cnn(C)c1)CC1(CCN(C(=O)Cc3ccc(F)cc3)C1)N2` (racemic), for which the Ratio in [4] is reported as 34. Also, the inhibition constant Ki on Melanocortin receptor 4 [2] is > 2200 nM. Also, the logD in data set [6] stood at 1.9. On Melanocortin receptor 4 [3], this molecule returned an IC50 of 20000 nM.

Turning to `COc1cc([C@@H](C)C(=O)N2CC[C@H](Nc3ccc(-c4n[nH]c(C(F)F)n4)c(C)n3)C2)c(F)cn1`, in [7], the hepatocyte CLint is 7.5 µL/min/1e6 cells. The Ki at Melanocortin receptor 4 [2] came to 62 nM. In addition, half-maximal inhibition in [8] (IC50) was put at 19000 nM.

On to `COc1cc([C@@H](C)C(=O)N2CC[C@@]3(CCc4cc(-c5nc(C(F)(F)F)n(C)n5)c(C)nc4N3)C2)c(F)cn1`, for which the hepatocyte CLint in [1] was found to be 12 µL/min/1e6 cells. In addition, the Ratio in data set [4] was found to be 4.8. Further, the inhibition constant Ki on Melanocortin receptor 4 [2] came out at 0.45 nM. The molecule further yielded an IC50 against Melanocortin receptor 4 [3] of 8.4 nM.

With `Cc1nc2c(cc1-c1cnn(C)c1)CC[C@@]1(CCN(C(=O)Cc3ccc(F)cc3)C1)N2`, the hepatocyte CLint in data set [1] is 6.5 µL/min/1e6 cells. Further, the Ratio in data set [4] is listed as 18. For the same molecule, the inhibitory constant (Ki) at Melanocortin receptor 4 [2] came to 0.6 nM. This molecule also showed a logD in data set [5] of 2.6. This molecule also had an IC50 against Melanocortin receptor 4 [3] of 39 nM.

Turning to `Cc1nc(N[C@H]2CCN(C(=O)Cc3ccc(F)cc3)C2)ccc1-c1ncn(C)n1`, the K at Cytochrome P450 3A came to 0.007 min⁻¹. The hepatocyte CLint in data set [7] was 4.5 µL/min/1e6 cells. The Ratio in data set [4] amounted to 19. The Ki at Melanocortin receptor 4 [2] came out at 19 nM. At Melanocortin receptor 4 [3], this molecule gave an IC50 of 240 nM.

Turning to `COc1cc([C@@H](C)C(=O)N2CC[C@H](Nc3ccc(-c4nc(C(F)(F)F)n(C)n4)c(C)n3)C2)c(F)cn1`, the hepatocyte CLint in data set [1] was found to be 15 µL/min/1e6 cells. Besides, the Ratio in data set [4] stood at 6.1. The logD in data set [6] was found to be 4.2.

`COc1ccc2nc(N[C@H]3CCN(C(=O)Cc4cc(F)cc(F)c4)C3)ccc2c1` showed a K on Cytochrome P450 3A of 0.61 min⁻¹. Further, in data set [7], the hepatocyte CLint was 28 µL/min/1e6 cells. Besides, the Ratio in [4] came out at 8.6. In addition, at Melanocortin receptor 4 [2], the inhibitory constant (Ki) was determined as 0.62 nM. For the same molecule, the IC50 was 360 nM at Melanocortin receptor 4 [9], 360 nM in [8] and 7.8 nM against Melanocortin receptor 4 [3].

`Cc1nc(N[C@H]2CCN(C(=O)Cc3ccc(F)cc3)C2)ccc1-c1nc(C(F)(F)F)n(C)n1` had a K on Cytochrome P450 3A of 0.006 min⁻¹. Further, the hepatocyte CLint in data set [7] turned out to be 20 µL/min/1e6 cells. Also, the Ratio in data set [4] came to 6.1. Moreover, the Ki on Melanocortin receptor 4 [2] was 5.5 nM. In addition, the half-maximal inhibitory concentration (IC50) in data set [8] stood at 78000 nM; at Melanocortin receptor 4 [3] it was 210 nM.

As for `COc1cc([C@@H](C)C(=O)N2CC[C@@]3(CCc4cc(-c5nc(C(F)F)n(C)n5)c(C)nc4N3)C2)c(F)cn1`, the hepatocyte CLint in data set [1] stood at 11 µL/min/1e6 cells. The Ratio in data set [4] worked out at 8.7. For the same molecule, the Ki at Melanocortin receptor 4 [2] was found to be 0.49 nM. This molecule also had a pH-dependent lipophilicity (logD) in data set [5] of 3.2.

For `[2H]C([2H])([2H])n1nc(-c2ccc(N[C@H]3CCN(C(=O)[C@H](C)c4cc(OC)ncc4F)C3)nc2C)nc1C(F)F`, the hepatocyte CLint in data set [7] was determined as 18 µL/min/1e6 cells. Besides, half-maximal inhibition in data set [8] (IC50) was put at 28000 nM.

Consider `COc1cc(CC(=O)N2CC[C@H](Nc3ccc(-c4nc(C(F)(F)F)n(C)n4)c(C)n3)C2)cc(OC)c1`, for which the hepatocyte CLint in data set [1] was 34 µL/min/1e6 cells. Besides, the pH-dependent lipophilicity (logD) in data set [6] was found to be 3.6.

The molecule `COc1cc([C@@H](C)C(=O)N2CC[C@H](Nc3ccc(-c4nc(C(F)F)n(C)n4)c(C)n3)C2)c(F)cn1` gave a K on Cytochrome P450 3A of 0.015 min⁻¹. The hepatocyte CLint in data set [1] and in [7] was 15 µL/min/1e6 cells throughout. This molecule also registered an IC50 in [8] of 25000 nM. Further, the logD in data set [6] was 3.4.

Turning to `COc1ccc2nc(N[C@H]3CCN(C(=O)Cc4cc(F)cc(F)c4)C3)c(C)cc2c1`, the inhibition constant (Ki) at Melanocortin receptor 4 [2] is 910 nM.
